We go through 3 compounds from patent US10101319B2, “Methods of detecting plasmodium infection” (Commonwealth Scientific and Industrial Research Organisation, priority 2013, dated 2018).

For one test, the system named is P. falciparum. Conditions: 13 evaluable volunteers; cited from earlier work.
The test system of a further test is Plasmodium falciparum. In words: GC-MS analysis of exhaled breath volatiles and PCR parasitaemia, Cohort 1, induced blood stage malaria, treated with OZ439. It counts as in vivo, human. The settings on record: Cohort 1 compared with Cohort 2 (slower acting bisquinoline 4-aminoquinoline). The protocol: This research was a controlled study using a blood stage Plasmodium falciparum (BSPC) inoculum challenge to characterize the efficacy of two anti-malaria drugs against early Plasmodium falciparum blood stage infection. Investigation of breath volatiles was an “add-on” to the anti-malarial efficacy studies. The study was conducted in two cohorts (n=8 for Cohort 1 and n=7 for Cohort 2) using different anti-malaria drugs. The anti-malaria drug investigated in Cohort 1 was OZ439 and the drug used in Cohort 2 was Piperaquine. OZ439, as an artemisin derivative, is rapidly absorbed, acts rapidly and is short-lived in the body. Piperaquine is absorbed slowly and has a long half-life in the body. […]
Each participant in the cohort was inoculated on Day 0 with ˜1,800 viable Plasmodium falciparum-infected human erythrocytes administered intravenously. On an outpatient basis, participants were monitored daily (AM) or morning (AM) and evening (PM), from day 3 until PCR positive for presence of malaria parasites, for adverse events and the unexpected early onset of symptoms, signs or parasitological evidence of malaria.
On the day designated for commencement of treatment, as determined by qPCR results (usually Day7/8 AM), participants were admitted to the study unit and confined for safety monitoring and anti-malaria drug administration with parasite load and drug levels being monitored. […]

Regarding atovaquone-proguanil, the “mean parasite reduction ratio” value with P. falciparum was 17.

As for `c1cc([C@H]2CC[C@]3(CC2)OO[C@]2(O3)C3CC4CC(C3)CC2C4)ccc1OCCN1CCOCC1` [OZ439], the “Decline in parasitaemia and thioether levels after drug” value in the test with Plasmodium falciparum is “faster decline in parasitaemia and thioether levels”.

For artemether-lumefantrine, in the test with P. falciparum, the “mean parasite reduction ratio” value is 759.
